Test results published in patent US20240181000A1, “LGG-DERIVED PEPTIDES AND METHODS OF USE THEREOF” (Ohio State Innovation Foundation, priority 2021, published 2024).
No end group written: not given here.

Experiments:
APEC = assay: Kinetic time-inhibition assay of synthesized peptides; format: cell-based, E. coli; settings: 12 mM, 12 h
Experimental: Peptides were added to the APEC suspension in a 96-well plate, and plate was incubated in TECAN Sunrise™ absorbance microplate reader at 37° C. with OD600 measurement set at every 30 min for 12 hr. The sequences in FIG. 7 are […] (SEQ ID NO: 5), […] (SEQ ID NO: 18), […] (SEQ ID NO: 21), […] (SEQ ID NO: 26), and […] (SEQ ID NO: 32).
The five common highly abundant peptides in CFSs of both L. rhamnosus GG and B. lactis Bb12 ([…] (SEQ ID NO:5), […] (SEQ ID NO:18), […] (SEQ ID NO:21), […] (SEQ ID NO:26) and […] (SEQ ID NO:32)) were synthesized (GenScript, NJ, USA) and tested for anti-APEC activity by conducting kinetic time-inhibition assay as described previously. Briefly, peptides dissolved in dimethyl sulfoxide (DMSO) at 200 mM concentrations were added (12 mM; final concentration of 6% DMSO) to APEC suspension (10^5 CFU/mL; LB media) in a 96-well plate. The plate was then incubated in TECAN Sunrise™ absorbance microplate reader (NC, USA) at 37° C. with OD600 measurement set at every 30 mins for 12 h. Untreated APEC (0% DMSO) and APEC treated with 6% DMSO were included as controls. […] Three independent experiments were conducted.

APEC O78 [1] = assay: Agar-well diffusion assay; format: cell-based, E. coli; settings: whole culture, 24 h
Experimental: Agar-well diffusion assay: To determine the inhibitory activity of commensal and probiotic bacteria against APEC, agar-well diffusion assay was conducted as described previously. Briefly, LB agar plate was spread with 100 μL of APEC O78 (10^7 CFU/mL) and 100 μL of fully grown stationary phase whole cultures (adjusted to OD600: 1) of commensal and probiotic bacteria were aliquoted into the wells bored in the agar plate. The plate was incubated at 37° C., and zone of inhibition was measured at 12 h and 24 h post-incubation. The inhibitory activity of L. rhamnosus GG and B. lactis Bb12 was also tested with different culture volumes (200 μL, 150 μL and 50 μL) and against other APEC serotypes as described above. Assay was also conducted with cell-free supernatants (CF Ss) of L. rhamnosus GG and B. lactis Bb12 and supernatant-free L. rhamnosus GG and B. lactis Bb12 itself. CFSs were prepared by centrifugation of whole cultures at 10,000×g for 10 min at 4° C. followed by filtration through 0.22 μm filter. The supernatant-free cultures were washed once and resuspended in PBS to check the activity of L. rhamnosus GG and B. lactis Bb12 itself. Two independent experiments were conducted. […]

APEC O78 [2] = format: cell-based, E. coli
Experimental: Anti-APEC activity determination: The anti-APEC activity of peptides was determined in LB broth following CLSI guidelines. Briefly, overnight grown APEC O78 was adjusted to 5×10^5 CFU/mL concentration in fresh LB media. One-hundred microliters of APEC suspension was aliquoted into the wells of the 96-well plate. Peptides were added to the wells at 6 mM and 12 mM concentrations and incubated at 37° C. in TECAN Sunrise™ absorbance microplate reader with kinetic absorbance measurement set at every 30 mins for 12 h. Sterile media and DMSO (solvent) were used as controls. The growth inhibitory activity of the peptides against APEC was calculated using the formula: (OD600 DMSO treated well−OD600 peptide treated well)/OD600 DMSO treated well×100%.
The minimum inhibitory concentration (MIC) was determined for selected peptides (P1, P2, P3, and P4) using similar assay as above. Peptides were added to the wells of the 96-well plate at 6 mM, 9 mM, 12 mM, 15 mM, and 18 mM concentrations. The peptide concentration at which there is no visible APEC growth (no OD increase) was determined as MIC. Two independent experiments were conducted.
Arginine and lysine substituted peptide analogues: The non-essential amino acid residues identified in each peptide were substituted with arginine/lysine to test whether these substitutions enhance the anti-APEC activity of peptides. The MICs of arginine and lysine substituted peptide analogues ([…] (SEQ ID NO:37), […] (SEQ ID NO:38), […] (SEQ ID NO:39), KDENK (SEQ ID NO:41), PDEKK (SEQ ID NO:42), KDEKK (SEQ ID NO:43), KHTAPK (SEQ ID NO:45), VKTAPK (SEQ ID NO:46), VHTKPK (SEQ ID NO:47), and KKTKPK (SEQ ID NO:48)) were determined as above and compared with original peptides.

[3] = system: Salmonella enterica subsp. enterica serovar Enteritidis (SE); format: cell-based; settings: subsp. enterica serovar Enteritidis (SE)
Experimental: MIC was determined by selecting peptide concentration at which there is no increased growth (no increase in OD), given indication of no ST growth. An independent repeat experiment was conducted.
Heat and protease tolerance of peptides: P1, P2, and P4 were heated for 6 minutes at 86° C. or treated with protease proteinase K, 200 μg/mL at 50° C. for 30 minutes. After which, the treated and/or heated peptides at their respective MICs were evaluated in the inhibition assay with Salmonella. The protocol from above was repeated in the Tecan with the same controls.
To analyze the perceived efficacy of arginine and lysine substitutes reported in previous studies, specific amino acid residues in P1 and P2 were replaced with lysine or arginine to test if the alliterations enhanced anti-Salmonella (ST and SE) activity. The MICs of the arginine or lysine substituted peptides ([…] (SEQ ID NO:37), […] (SEQ ID NO:38), […] (SEQ ID NO:39), KDENK (SEQ ID NO:41), PDEKK (SEQ ID NO:42), KDEKK (SEQ ID NO:43), KHTAPK (SEQ ID NO:45)) were determined as described early. Two independent experiments were conducted to ensure accuracy.

multiple APEC serotypes = format: cell-based, E. coli
Experimental: Anti-APEC spectrum determination: Peptides (P1, P2, and P3) were tested against multiple APEC serotypes/strains to determine their spectrum of activity. Peptides were added at their MICs and the growth inhibitory activity of the peptides was determined as described above.

ST = assay: Minimal bactericidal concentration of PN-3 and PN-5; format: cell-based, Salmonella enterica
Experimental: FIGS. 30A-30C show the growth pattern of ST with and without peptide at 9-21 mM concentration. […] The plate was incubated in a TECAN Sunrise™ absorbance microplate reader at 37° C., measuring the OD 600 set at every 30 mins for 12 hrs., followed by bacterial enrichment to determine the minimal bactericidal concentration log CFU/mL.

[4] = system: various probiotic strains; format: cell-based; settings: at MIC (PN3 12 mM, PN5 15 mM)
Experimental: FIGS. 16A-16B show the effect of the peptide on the growth of various probiotic strains after treating at their minimal inhibitory concentrations of 12 and 15 mM of PN3 and PN5, respectively. […] FIG. 16B the effect of 15 mM of PN5 peptide. The bacteria (5×10^5 CFU/mL) were treated with peptides and grown at 37° C. for 24 hrs in an anaerobic condition except for E. coli Nissel 1917 and E. coli G58-1, which has grown in aerobic conditions for 12 hrs. After incubation, serially dilute the culture and counted the CFU/mL Bacterial inhibition percentage was calculated by comparing with no peptide treated control.

APEC O78 [5] = assay: Resistance after 13 passages at 0.75×MIC; format: cell-based, E. coli
Experimental: FIGS. 18A-18B show the growth of APEC O78 at MIC of the peptides after growing the bacteria for 13 passages with a sublethal concentration (0.75×MIC) of peptides. […] The OD 600 was measured at every 30 mins for 12 hrs.

Biofilm-embedded APEC = assay: Effect of PN peptides on biofilm embedded APEC; format: cell-based, E. coli; settings: untreated 7.71 ± 0.72
[6] = system: various serovars of Salmonella; assay: PN3 and PN5 on various serovars of Salmonella; format: cell-based; settings: at MBC, 12 hrs
Experimental: Salmonella serovars (5×10^5 CFU/mL) were treated with peptides and grown at 37° C. for 12 hrs. In addition, bacterial inhibition percentage was calculated by comparing with no peptide control. […] Red: Bactericidal, Green: Non bactericidal.
FIGS. 32A-32B show the growth inhibition percentage of various serovars of Salmonella after treating with minimal inhibitory concentrations of peptides. […] Salmonella serovars (5×10^5 CFU/mL) were treated with peptides and grown at 37° C. for 12 hrs. In addition, bacterial inhibition percentage was calculated by comparing with no peptide control.

Intracellular APEC = assay: Effect of PN peptides on intracellular APEC; format: cell-based, E. coli
APEC O78 [7] = format: cell-based, E. coli; settings: 12 h
Experimental: FIGS. 13A-13C show the growth pattern of APEC O78 with and without peptide at 3-21 mM concentration. […] Various concentrations of peptides were added to the APEC suspension (5×10^5 CFU/mL) in a 96-well plate. The plate was incubated in a TECAN Sunrise™ absorbance microplate reader at 37° C., measuring the OD 600 set at every 30 mins for 12 hrs. After 12 hrs. incubation the bacteria were serially diluted and plated to count CFU/mL and calculated the inhibitory percentage using (Control-treated)/treated*100.
FIGS. 14A-14B show the growth pattern of APEC O78, treated with a combination of peptides at 3-21 mM concentration with respect to no peptide control. […] The two peptides were added together to the APEC suspension (5×10^5 CFU/mL) in a 96-well plate. The plate was incubated at 37° C. in a TECAN Sunrise™ absorbance microplate reader, measuring the OD 600 set at every 30 mins for 12 hrs. After incubation, the bacteria were serially diluted and plated to measure CFU/mL and calculate the inhibitory percentage using (Control-treated)/treated*100.

## AESSDTNLVNAKAA [PN-2]
APEC
  Inhibition of APEC growth: slightly inhibitory

## AFDNTDTSLDSTFKSA [PN-4]
APEC
  Inhibition of APEC growth: completely inhibitory

## Bifidobacterium longum
APEC O78 [1]
  Zone of inhibition: 0.0 ± 0.0 mm

## FSAVALSAVALSKPGHVNA [PN-1]
APEC
  Inhibition of APEC growth: did not affect the APEC growth

## KDEKK [KDEKK]
APEC O78 [2]
  MIC: 12 mM

## KDENK [KDENK]
APEC O78 [2]
  MIC: 9 mM

## KHTAPK [KHTAPK]
APEC O78 [2]
  MIC: >18 mM

## KKTKPK [KKTKPK]
APEC O78 [2]
  MIC: >18 mM

## NPRRQERR
APEC O78 [2]
  MIC: 12 mM

## NPRRQRRR
[3]
  MIC against SE: >18 mM

## NPRRRERR
APEC O78 [2]
  MIC: 12 mM

## NPSRRERR
APEC O78 [2]
  MIC: 15 mM

## PDEKK [PDEKK]
APEC O78 [2]
  MIC: 9 mM
[3]
  MIC against SE: 12 mM

## VHTAPK [Peptide P3, VHTAPK]
APEC O78 [2]
  MIC: 18 mM
  MIC50: 16.2 mM
Multiple APEC serotypes
  Growth inhibition against APEC serotypes: 39.4-88.4%

## VHTKPK [VHTKPK]
APEC O78 [2]
  MIC: >18 mM

## VKTAPK [VKTAPK]
APEC O78 [2]
  MIC: >18 mM

## VQAAQAGDTKPIEV [PN-3]
ST
  Minimal bactericidal concentration: 21 mM
[4]
  Growth of B. longum, B. adolescentis, and B. theoiotamicron: promoted the growth
  Growth of BB12, E. coli Nissel 1917 and E. coli G58-1: inhibited the growth
  Growth of LGG: unaffected
APEC O78 [5]
  Bacterial resistance against the peptides: did not cause bacterial resistance
Biofilm-embedded APEC
  Biofilm-embedded APEC: 4.21 ± 0.48 Log CFU/mL
[6]
  Bactericidal effect on eight Salmonella serotypes: kill all the eight serotypes of Salmonella with no viable colony
Intracellular APEC; 0.25 X, untreated 2.98 ± 0.87
  Intracellular APEC: 2.64 ± 0.23 Log CFU/mL
Intracellular APEC; 0.75 X
  Intracellular APEC: 2.59 ± 0.30 Log CFU/mL
Intracellular APEC; 1 X
  Intracellular APEC: 2.50 ± 0.17 Log CFU/mL
Intracellular APEC; 1.5 X
  Intracellular APEC: 0.00 ± 0.00 Log CFU/mL
APEC O78 [7]
  Minimal inhibitory concentration: 12 mM
APEC
  Inhibition of APEC growth: completely inhibitory

## VTDTSGKAGTTKISNV [PN-5]
ST
  Minimal bactericidal concentration: 21 mM
[4]
  Growth of B. longum, B. adolescentis, and B. theoiotamicron: promoted the growth
  Growth of BB12, E. coli Nissel 1917 and E. coli G58-1: inhibited the growth
  Growth of LGG: slightly affected
APEC O78 [5]
  Bacterial resistance against the peptides: did not cause bacterial resistance
Biofilm-embedded APEC
  Biofilm-embedded APEC: 4.95 ± 0.07 Log CFU/mL
[6]
  Bactericidal effect on eight Salmonella serotypes: killed all serotypes except Saintpaul
Intracellular APEC; 0.25 X, untreated 2.98 ± 0.87
  Intracellular APEC: 2.34 ± 0.11 Log CFU/mL
Intracellular APEC; 0.75 X
  Intracellular APEC: 2.30 ± 0.00 Log CFU/mL
Intracellular APEC; 1 X
  Intracellular APEC: 0.00 ± 0.00 Log CFU/mL
Intracellular APEC; 1.5 X
  Intracellular APEC: 0.00 ± 0.00 Log CFU/mL
APEC O78 [7]
  Minimal inhibitory concentration: 15 mM
APEC
  Inhibition of APEC growth: completely inhibitory
